According to PubChem BioAssay AID2060885 (Molecular Pharmacology Branch, DTP, NCI, 2025):

System: NCI-H23 complex spheroids with HUVEC/MSC, viability
Assay: Anticancer human tumor NCI-H23 cell line growth inhibition [RAS]
Conditions: for IC50: curve of first compound; for viability, T/C: stronger effect = lower value; active = viability on the fitted dose curve at most 10% of control; inactive = the rest
Text: RAS pathway inhibitors in Combinations in Complex Spheroids
A high-throughput screen of multi-cell type tumor spheroids was designed to identify active combinations of RAS pathway inhibitors and targeted small molecules. Complex spheroids include a stromal component modeled by human endothelial cells (HUVEC) and fibroblasts modeled by human mesenchymal stem cells (MSCs). The concentration ranges selected for each drug and investigational agent were based upon clinically achievable concentrations if the clinical Cmax of the agent was known.
Compounds. The drugs and investigational agents: abemaciclib (NSC768073), cobimetinib (NSC768068), divarasib (GDC6063, NSC841802), docetaxel (NSC628503), GDC-1971 (RLY-1971, NSC841576), gemcitabine (NSC613327), inavolisib (NSC800729), ipatasertib (NSC767898), KB-0742 (NSC834161), MRTX-1133 (NSC836407), osimertinib (NSC779217), RMC-4630 (NSC839698), RMC-6236 (NSC851965), RMC-6291 (NSC852671), Ro-3306 (NSC812927), sapanisertib (NSC764658), SN-38 (NSC673596), staurosporine (NSC755774), SY5609 (NSC837396), and tovorafenib (DAY101, NSC766906), were obtained from the National Cancer Institute (NCI) Developmental Therapeutics Program Chemical Repository. The FDA-approved anticancer drug set is available from the NCI Developmental Therapeutics Program. […] The stock solutions were prepared in dimethyl sulfoxide (DMSO, Sigma-Aldrich, St. Louis, MO, cat. D2650) at 800-fold the tested concentration and stored at -70 degrees C prior to their use. All drugs and investigational agents were tested over a range starting from a high concentration at or near the clinical Cmax and decreasing in half-log increments. If the clinical Cmax for an agent had not been determined, the highest concentration tested was 10 microM.
Cell Culture. All cells were maintained in an incubator at 37 degrees C and 5% CO2 with 95% humidity. The PDC lines were cultured according to standard operating procedures established by the NCI PDMR. All PDCs were thawed and cultured in Matrigel-coated flasks prepared with a working solution of 1X Ham's F-12 nutrient mix, without supplementation (Invitrogen, Waltham, MA, cat. 11765054), 100 U/mL penicillin-streptomycin (Invitrogen, cat. 15140122), and 2.5% Matrigel (Corning Inc., Corning, NY, cat. 354248) for the first three passages. The 362531-283-R-J2-PDC and 782815-120-R-J1-PDC lines were cultured in 6C/Colon 1B media, which includes advanced DMEM/F-12 (Thermo Fisher Scientific, cat. 12634028), 10 mM HEPES (Thermo Fisher Scientific, cat. 15630080), 1X GlutaMAX supplement (Thermo Fisher Scientific, cat. 35050061), 0.1 mg/mL primocin (InvivoGen, San Diego, CA, cat. ant-pm-2), 10% defined fetal bovine serum, heat inactivated (HyClone Laboratories Inc., Logan, UT, cat. SH30070.03HI), 50% L-WRN conditioned media (ATCC, cat. CRL-3276), 1.25 mM N-Acetyl-L-cysteine (Sigma-Aldrich, cat. A9165), 10 mM nicotinamide (Sigma-Aldrich, cat. N0636), 1X B-27 supplement (Thermo Fisher Scientific, cat. 17504044), 1X N-2 supplement (Thermo Fisher Scientific, cat. 17502048), 50 ng/mL human EGF (Thermo Fisher Scientific, cat. PHG0311), and 10 microM Y-27632 dihydrochloride (Tocris Bioscience, cat. 1254). The K12877-001-R-J1-PDC line was cultured in 6I media, which includes all 6C/Colon 1B media plus 10 ng/mL human FGF-10 (PeproTech, cat. 100-26), 1 ng/mL human FGF-2 (PeproTech, cat. 100-18B), 1 µM prostaglandin E2 (Tocris Bioscience, cat. 2296), […] hydrocortisone (Sigma-Aldrich, cat. H4001), and […] bovine insulin (Sigma-Aldrich, cat. I6634). The K86415-001-R-J1-PDC line was cultured in 6D media, which includes all 6C/Colon 1B media components minus the L-WRN conditioned media. The 485176-168-R4-J1-PDC was cultured in PANC media, which includes all 6C/Colon 1B media plus 100 ng/mL human FGF-10 (PeproTech, cat. 100-26), 500 nM SB-431542 (Selleckchem, cat. S1067), and 10 nM gastrin (Tocris Bioscience, cat. 3006). […]

[1] = second compound 0.0316 µM, first compound 0.0316 µM
[2] = second compound 0.0316 µM, first compound 0.1 µM
[3] = second compound 0.0316 µM, first compound 0.316 µM
[4] = second compound 0.0316 µM, first compound 1 µM
[5] = second compound 0.0316 µM, first compound 3.16 µM
[6] = second compound 0.0316 µM, first compound 10 µM
[7] = second compound 0.1 µM, first compound 0.0316 µM
[8] = second compound 0.1 µM, first compound 0.1 µM
[9] = second compound 0.1 µM, first compound 0.316 µM
[10] = second compound 0.1 µM, first compound 1 µM
[11] = second compound 0.1 µM, first compound 3.16 µM
[12] = second compound 0.1 µM, first compound 10 µM
[13] = second compound 0.316 µM, first compound 0.0316 µM
[14] = second compound 0.316 µM, first compound 0.1 µM
[15] = second compound 0.316 µM, first compound 0.316 µM
[16] = second compound 0.316 µM, first compound 1 µM
[17] = second compound 0.316 µM, first compound 3.16 µM
[18] = second compound 0.316 µM, first compound 10 µM
[19] = second compound 1 µM, first compound 0.0316 µM
[20] = second compound 1 µM, first compound 0.1 µM
[21] = second compound 1 µM, first compound 0.316 µM
[22] = second compound 1 µM, first compound 1 µM
[23] = second compound 1 µM, first compound 3.16 µM
[24] = second compound 1 µM, first compound 10 µM
[25] = second compound 3.16 µM, first compound 0.0316 µM
[26] = second compound 3.16 µM, first compound 0.1 µM
[27] = second compound 3.16 µM, first compound 0.316 µM
[28] = second compound 3.16 µM, first compound 1 µM
[29] = second compound 3.16 µM, first compound 3.16 µM
[30] = second compound 3.16 µM, first compound 10 µM
[31] = second compound 10 µM, first compound 0.0316 µM
[32] = second compound 10 µM, first compound 0.1 µM
[33] = second compound 10 µM, first compound 0.316 µM
[34] = second compound 10 µM, first compound 1 µM
[35] = second compound 10 µM, first compound 3.16 µM
[36] = second compound 10 µM, first compound 10 µM

CC(C)NCC(C(=O)N1CCN(c2ncnc3c2C(C)CC3O)CC1)c1ccc(Cl)cc1 (centres undefined) + C#Cc1c(F)ccc2cc(O)cc(-c3ncc4c(N5CC6CCC(C5)N6)nc(OCC56CCCN5CC(F)C6)nc4c3F)c12
> 10 µM: IC50 (second compound 0.0316 µM) | IC50 (second compound 0.1 µM) | IC50 (second compound 0.316 µM) | IC50 (second compound 1 µM)
0.52 µM: IC50 (second compound 3.16 µM)
inactive: viability, T/C [1] 100% | viability, T/C [2] 133% | viability, T/C [3] 89.4% | viability, T/C [4] 90.5% | viability, T/C [5] 76% | viability, T/C [6] 74.2% | viability, T/C [7] 107% | viability, T/C [8] 122% | viability, T/C [9] 95.3% | viability, T/C [10] 91% | viability, T/C [11] 69.7% | viability, T/C [12] 66.6% | viability, T/C [13] 122% | viability, T/C [14] 131% | viability, T/C [15] 99.7% | viability, T/C [16] 84.4% | viability, T/C [17] 70.2% | viability, T/C [18] 55.7% | viability, T/C [19] 108% | viability, T/C [20] 101% | viability, T/C [21] 73.6% | viability, T/C [22] 66.7% | viability, T/C [23] 56.1% | viability, T/C [24] 49% | viability, T/C [25] 68.6% | viability, T/C [26] 69% | viability, T/C [27] 51.6% | viability, T/C [28] 44.9% | viability, T/C [29] 37.9% | viability, T/C [30] 32.6% | viability, T/C [31] 38.4% | viability, T/C [32] 40.9% | viability, T/C [33] 34.1% | viability, T/C [34] 26.1% | viability, T/C [35] 22.8% | viability, T/C [36] 18.5%
< 0.0316 µM: IC50 (second compound 10 µM)

CC(Nc1ccc2c(c1)OCCn1cc(N3C(=O)OCC3C(F)F)nc1-2)C(N)=O (centres undefined) + C#Cc1c(F)ccc2cc(O)cc(-c3ncc4c(N5CC6CCC(C5)N6)nc(OCC56CCCN5CC(F)C6)nc4c3F)c12
< 0.0316 µM: IC50 (second compound 10 µM)
0.207 µM: IC50 (second compound 3.16 µM)
> 10 µM: IC50 (second compound 0.0316 µM) | IC50 (second compound 0.1 µM) | IC50 (second compound 0.316 µM) | IC50 (second compound 1 µM)
inactive: viability, T/C [1] 96.5% | viability, T/C [2] 112% | viability, T/C [3] 74.5% | viability, T/C [4] 70.5% | viability, T/C [5] 62.9% | viability, T/C [6] 74% | viability, T/C [7] 108% | viability, T/C [8] 119% | viability, T/C [9] 77.3% | viability, T/C [10] 69.3% | viability, T/C [11] 64.9% | viability, T/C [12] 71.2% | viability, T/C [13] 107% | viability, T/C [14] 107% | viability, T/C [15] 66.2% | viability, T/C [16] 66.8% | viability, T/C [17] 63.7% | viability, T/C [18] 60.9% | viability, T/C [19] 98.8% | viability, T/C [20] 86.5% | viability, T/C [21] 60.8% | viability, T/C [22] 54% | viability, T/C [23] 49.5% | viability, T/C [24] 63.8% | viability, T/C [25] 61.2% | viability, T/C [26] 63.6% | viability, T/C [27] 39.8% | viability, T/C [28] 40.4% | viability, T/C [29] 43.1% | viability, T/C [30] 48.1% | viability, T/C [31] 36.6% | viability, T/C [32] 38.7% | viability, T/C [33] 27.5% | viability, T/C [34] 23.4% | viability, T/C [35] 30.8% | viability, T/C [36] 24.2%
